US7524930B2, “Tumor antigen” (Green Peptide Co., Ltd, priority 2003, dated 2009)

What was measured:
[1] = system: Panc-1 pancreatic adenocarcinoma cell (HLA-A2); experiment: 6-h 51Cr-releasing test of peptide-stimulated PBMC against Panc-1 (Example 6); format: cell-based, human
Protocol: Meanwhile, the above-described cells cultured for 10 days after stimulation by the peptide were further cultured for 10 days. The cytotoxicity of the obtained cells against the Panc-1 pancreatic adenocarcinoma cell (HLA-A2) was measured by the standard 6-h ^51Cr-releasing test in an E/T ratio of 10:1. The results obtained are presented as % specific lysis (table 7). Together with this step, cytotoxicity against SSTW-9 tumor cell as the HLA-A2^− tumor cell was measured to use as a background that was subtracted from the above-described result.

[2] = system: OK-CTLp or OK-CTL clone; experiment: Recognition of peptide-pulsed T2 cells by OK-CTLp or OK-CTL clone (IFN-γ ELISA); format: cell-based, human
[3] = system: human peripheral blood mononuclear cells (PBMC); experiment: CTL induction by peptide from PBMC of HLA-A2-positive cancer patients and healthy individuals, IFN-γ against peptide-pulsed T2 cells (Example 6); format: cell-based; settings: for INF-γ production: peptide-pulsed T2 cells; for Healthy individuals in whom CTL were induced from PBMC: six healthy individuals; for Patients in whom peptide-specific HLA-A2-restricted CTL were induced from PBMC: sixteen HLA-A2-positive cancer patients
Protocol: For six peptides (P21, P22, P24, P26, P30, and P32) with a purity of 95% or higher among peptides from P20 to P32 derived from gene 7 and CPSF among the tumor antigen peptide obtained in Example 4, the activity to induce CTL in vitro from human peripheral blood mononuclear cells (PBMC) was examined using IFN-γ production as an indicator. PBMC used was prepared from each peripheral blood of sixteen HLA-A2-positive cancer patients (4 patients with pancreatic cancer, seven patients with stomach cancer, and 5 patients with colon cancer) and six healthy individuals. Specifically, 1×10^5 PBMC was added to each well of 96-well U-bottom type microculture plate (Nunc Corp.) and incubated together with 10 μM of each of the above-described peptides in 200 μl culture medium. The culture medium consisted of 45% RPMI-1640, 45% AIM-V (Invitrogen Corp.,) 10% fetal calf serum (FCS), 100U/ml of human interleukin-2, and […] MEM nonessential amino acid solution (Invitrogen Corp.). At day 4 and day 7 after the start of culturing, half of the culture medium was removed and replaced with the above-described composition containing each corresponding peptide. At day 10 after the start of culturing, the cells were collected and washed, followed by reacting with T2 cells, which were pulsed with each corresponding peptide, to measure the amount of IFN-γ produced.

[4] = PBMC of colon cancer patient 12, Panc-1, E/T 10:1
[5] = PBMC of colon cancer patient 14, Panc-1, E/T 10:1
[6] = PBMC of pancreatic cancer patient 2, Panc-1, E/T 10:1, SSTW-9 background subtracted
[7] = concentration of peptide 0.1 μM
[8] = PBMC of colon cancer patient 12
[9] = PBMC of colon cancer patient 13
[10] = PBMC of colon cancer patient 14
[11] = PBMC of colon cancer patient 15
[12] = PBMC of colon cancer patient 16
[13] = PBMC of pancreatic cancer patient 1
[14] = PBMC of pancreatic cancer patient 2
[15] = PBMC of pancreatic cancer patient 3
[16] = PBMC of pancreatic cancer patient 4
[17] = PBMC of stomach cancer patient 5
[18] = PBMC of stomach cancer patient 6
[19] = PBMC of stomach cancer patient 7
[20] = PBMC of stomach cancer patient 8
[21] = PBMC of stomach cancer patient 9
[22] = PBMC of stomach cancer patient 10
[23] = PBMC of stomach cancer patient 11
[24] = PBMC of pancreatic cancer patient 4, Panc-1, E/T 10:1

| Sequence | IFN-γ production [2, 7] | IFN-γ production ([2]; concentration of peptide 1 μM) | IFN-γ production ([2]; concentration of peptide 10 μM) | IFN-γ production ([2]; concentration of peptide 50 μM) | INF-γ production [3, 8] | INF-γ production [3, 9] | INF-γ production [3, 10] | INF-γ production [3, 11] | INF-γ production [3, 12] | INF-γ production ([3]; PBMC of healthy individual HD1) | INF-γ production ([3]; PBMC of healthy individual HD2) | INF-γ production ([3]; PBMC of healthy individual HD3) | INF-γ production ([3]; PBMC of healthy individual HD4) | INF-γ production ([3]; PBMC of healthy individual HD5) | INF-γ production ([3]; PBMC of healthy individual HD6) | INF-γ production [3, 13] | INF-γ production [3, 14] | INF-γ production [3, 15] | INF-γ production [3, 16] | INF-γ production [3, 17] | also measured |
| --- | --- | --- | --- | --- | --- | --- | --- | --- | --- | --- | --- | --- | --- | --- | --- | --- | --- | --- | --- | --- | --- |
| DMWTVIAPV (Designed peptide having an ability to activate HLA-A2 restricted Cytotoxic T lymphocytes) [Peptide P22, CPSF 534-542] | 254 pg/mL | 1027 pg/mL | 431 pg/mL | 407 pg/mL | 92 pg/mL | 179 pg/mL | 80 pg/mL | 5 pg/mL | 0 pg/mL | 0 pg/mL | 0 pg/mL | 0 pg/mL | 0 pg/mL | 0 pg/mL | 14 pg/mL | 0 pg/mL | 38 pg/mL | 0 pg/mL | 8 pg/mL | 0 pg/mL | % specific lysis [1, 4]: 28%; % specific lysis [1, 5]: 19%; % specific lysis [1, 6]: 37%; INF-γ production [3, 18]: 0 pg/mL; INF-γ production [3, 19]: 0 pg/mL; INF-γ production [3, 20]: 0 pg/mL; INF-γ production [3, 21]: 0 pg/mL; INF-γ production [3, 22]: 0 pg/mL; INF-γ production [3, 23]: 0 pg/mL; Healthy individuals in whom CTL were induced from PBMC [3]: 33%; Patients in whom peptide-specific HLA-A2-restricted CTL were induced from PBMC [3]: 38% |
| KVHPVIWSL [Peptide P21] | 428 pg/mL | 501 pg/mL | 81 pg/mL | 195 pg/mL | 0 pg/mL | 0 pg/mL | 66 pg/mL | 0 pg/mL | 140 pg/mL | 0 pg/mL | 0 pg/mL | 58 pg/mL | 5 pg/mL | 224 pg/mL | 97 pg/mL | 0 pg/mL | 7 pg/mL | 0 pg/mL | 543 pg/mL | 0 pg/mL | % specific lysis [1, 5]: 11%; % specific lysis [1, 24]: 12%; % specific lysis ([1]; PBMC of stomach cancer patient 9, Panc-1, E/T 10:1): 27%; % specific lysis ([1]; PBMC of stomach cancer patient 11, Panc-1, E/T 10:1): 18%; INF-γ production [3, 18]: 0 pg/mL; INF-γ production [3, 19]: 0 pg/mL; INF-γ production [3, 20]: 5 pg/mL; INF-γ production [3, 21]: > 1500 pg/mL; INF-γ production [3, 22]: 0 pg/mL; INF-γ production [3, 23]: 136 pg/mL; Healthy individuals in whom CTL were induced from PBMC [3]: 50%; Patients in whom peptide-specific HLA-A2-restricted CTL were induced from PBMC [3]: 31% |
| LLLKYTEKL [Peptide P24] | 728 pg/mL | – | 103 pg/mL | 2 pg/mL | – | – | – | – | – | – | – | – | – | – | – | – | – | – | – | – | – |
| LLRRADFHV (Designed peptide having an ability to activate HLA-A2 restricted Cytotoxic T lymphocytes) [Peptide P26, Gene 7 1296-1304] | 141 pg/mL | 418 pg/mL | 1239 pg/mL | 0 pg/mL | 0 pg/mL | 0 pg/mL | 0 pg/mL | 40 pg/mL | 45 pg/mL | 0 pg/mL | 0 pg/mL | 0 pg/mL | 0 pg/mL | 13 pg/mL | 0 pg/mL | 0 pg/mL | 35 pg/mL | 0 pg/mL | 77 pg/mL | 53 pg/mL | % specific lysis ([1]; PBMC of colon cancer patient 15, Panc-1, E/T 10:1): 12%; % specific lysis [1, 6]: 36%; % specific lysis [1, 24]: 20%; % specific lysis ([1]; PBMC of stomach cancer patient 5, Panc-1, E/T 10:1): 11%; INF-γ production [3, 18]: 0 pg/mL; INF-γ production [3, 19]: 0 pg/mL; INF-γ production [3, 20]: 11 pg/mL; INF-γ production [3, 21]: 8 pg/mL; INF-γ production [3, 22]: 0 pg/mL; INF-γ production [3, 23]: 0 pg/mL; Patients in whom peptide-specific HLA-A2-restricted CTL were induced from PBMC [3]: 31% |
| LMLQNALTIM (LMLQNALTTM; Designed peptide having an ability to activate HLA-A2 restricted Cytotoxic T lymphocytes) [Peptide P30, Gene 7 1359-1368] | 88 pg/mL | 7001 pg/mL | – | – | 0 pg/mL | 41 pg/mL | 33 pg/mL | 0 pg/mL | 68 pg/mL | 0 pg/mL | 0 pg/mL | 14 pg/mL | 0 pg/mL | 0 pg/mL | 0 pg/mL | 0 pg/mL | 12 pg/mL | 0 pg/mL | 73 pg/mL | 0 pg/mL | % specific lysis ([1]; PBMC of colon cancer patient 13, Panc-1, E/T 10:1): 12%; % specific lysis [1, 5]: 10%; % specific lysis [1, 24]: 11%; % specific lysis ([1]; PBMC of stomach cancer patient 8, Panc-1, E/T 10:1): 18%; % specific lysis ([1]; PBMC of stomach cancer patient 10, Panc-1, E/T 10:1): 26%; INF-γ production [3, 18]: 0 pg/mL; INF-γ production [3, 19]: 0 pg/mL; INF-γ production [3, 20]: 146 pg/mL; INF-γ production [3, 21]: 92 pg/mL; INF-γ production [3, 22]: 46 pg/mL; INF-γ production [3, 23]: 0 pg/mL; Patients in whom peptide-specific HLA-A2-restricted CTL were induced from PBMC [3]: 44% |
| SLLYLNQSV [Peptide P20] | 344 pg/mL | 643 pg/mL | 0 pg/mL | 34 pg/mL | – | – | – | – | – | – | – | – | – | – | – | – | – | – | – | – | – |
| TMLPHHAGL [Peptide P25] | 69 pg/mL | 1569 pg/mL | 25 pg/mL | 122 pg/mL | – | – | – | – | – | – | – | – | – | – | – | – | – | – | – | – | – |
| TQLATYSFEV (Designed peptide having an ability to activate HLA-A2 restricted Cytotoxic T lymphocytes) [Peptide P32, CPSF 456-465] | – | – | – | – | 57 pg/mL | 0 pg/mL | 0 pg/mL | 0 pg/mL | 4 pg/mL | 0 pg/mL | 0 pg/mL | 0 pg/mL | 0 pg/mL | 0 pg/mL | 0 pg/mL | 0 pg/mL | 12 pg/mL | 0 pg/mL | 0 pg/mL | 0 pg/mL | % specific lysis [1, 4]: 18%; INF-γ production [3, 18]: 0 pg/mL; INF-γ production [3, 19]: 0 pg/mL; INF-γ production [3, 20]: 0 pg/mL; INF-γ production [3, 21]: 0 pg/mL; INF-γ production [3, 22]: 0 pg/mL; INF-γ production [3, 23]: 0 pg/mL; Patients in whom peptide-specific HLA-A2-restricted CTL were induced from PBMC [3]: 7% |
| YQLPDWRLV [Peptide P29] | 0 pg/mL | – | 86 pg/mL | 362 pg/mL | – | – | – | – | – | – | – | – | – | – | – | – | – | – | – | – | – |
